Source: publication PMC12257073 (Cancer Research Communications, 2025)

Experiment: Adverse events (treatment-related and all-cause) and dose-limiting toxicities, NCI CTCAE version 4.0
Conditions: all-cause adverse events
[1] = Group 1, Skin and subcutaneous tissue disorders

Description: The phase 1b portion of the study used a standard 3 + 3 dose-escalation design with a starting dose level 1 (DL1) of 37 mg oral daily TP-0903 (Supplementary Table S2) based on experience with 50 mg oral daily as a single agent in patients with solid tumors ([25]). Dose-limiting toxicities (DLT) were evaluated to establish the dose brought forward for an expansion cohort (phase 2). Seven patients were enrolled in the phase 1b study, which was completed in January 2021 with the decision to move forward with an expansion cohort of 37 mg oral daily. Across the phase 1b and phase 2 studies, 15 patients were enrolled and started on 37 mg TP-0903 oral daily on days 1 to 21 (group 1). […] One additional patient was enrolled at this time but was inadvertently started on 25 mg TP-0903 oral daily on days 1 to 21. […] In May 2021, an amendment was approved to allow enrollment of a new group 2 at 25mg oral daily on days 1 to 21 of TP-0903 (DL-1) in stage 2 of the phase 2 study.
Clinical response was assessed according to the modified 2017 European LeukemiaNet AML criteria ([26]). The primary endpoint was achievement of CR within six cycles of therapy. Secondary endpoints included toxicity, duration of response, OS, and the proportion of eligible patients who effectively transitioned to allogeneic stem cell transplantation. Exploratory endpoints included pharmacokinetics (PK), correlative genetic, and biochemical data; correlations between morphologic remission, spectral flow cytometry, and mutational remission; and duration of remission or survival. […] Adverse events (AE) were graded according to the NCI Common Terminology Criteria for Adverse Events version 4.0 ([27]).

CN1CCN(Cc2ccc(Nc3ncc(Cl)c(Nc4ccccc4S(=O)(=O)N(C)C)n3)cc2)CC1.O=C(O)C(O)C(O)C(=O)O.O=C(O)C(O)C(O)C(=O)O [TP-0903, 2-(5-chloro-2-(4-((4-methylpiperazin-1-yl)methyl)phenylamino)pyrimidin-4-yl)amino-N,N-dimethylbenzene-1-sulfonamide di-tartrate salt]
Atrial fibrillation with RVR, All (Group 1, Missing Categories): 0 (0) | Atrial fibrillation with RVR, Grade 1 2 (Group 1, Missing Categories): 0 (0) | Atrial fibrillation with RVR, Grade 3+ (Group 1, Missing Categories): 0 (0) | COPD exacerbation, All (Group 1, Missing Categories): 1 (6.7) | COPD exacerbation, Grade 1 2 (Group 1, Missing Categories): 1 (6.7) | COPD exacerbation, Grade 3+ (Group 1, Missing Categories): 0 (0) | Chest pain (non-cardiac), All (Group 1, Missing Categories): 0 (0) | Chest pain (non-cardiac), Grade 1 2 (Group 1, Missing Categories): 0 (0) | Chest pain (non-cardiac), Grade 3+ (Group 1, Missing Categories): 0 (0) | Death, NOS, All (Group 1, Missing Categories): 1 (6.7) | Death, NOS, Grade 1 2 (Group 1, Missing Categories): 0 (0) | Death, NOS, Grade 3+ (Group 1, Missing Categories): 1 (6.7) | Diarrhea (intermittent), All (Group 1, Missing Categories): 0 (0) | Diarrhea (intermittent), Grade 1 2 (Group 1, Missing Categories): 0 (0) | Diarrhea (intermittent), Grade 3+ (Group 1, Missing Categories): 0 (0) | Hand-Foot Syndrome, All (Group 1, Missing Categories): 1 (6.7) | Hand-Foot Syndrome, Grade 1 2 (Group 1, Missing Categories): 1 (6.7) | Hand-Foot Syndrome, Grade 3+ (Group 1, Missing Categories): 0 (0) | Hip Pain, All (Group 1, Missing Categories): 1 (6.7) | Hip Pain, Grade 1 2 (Group 1, Missing Categories): 1 (6.7) | Hip Pain, Grade 3+ (Group 1, Missing Categories): 0 (0) | Hypokalemia (intermittent), All (Group 1, Missing Categories): 0 (0) | Hypokalemia (intermittent), Grade 1 2 (Group 1, Missing Categories): 0 (0) | Hypokalemia (intermittent), Grade 3+ (Group 1, Missing Categories): 0 (0) | Hypotension (intermittent), All (Group 1, Missing Categories): 0 (0) | Hypotension (intermittent), Grade 1 2 (Group 1, Missing Categories): 0 (0) | Hypotension (intermittent), Grade 3+ (Group 1, Missing Categories): 0 (0) | INR - Increased, All (Group 1, Missing Categories): 1 (6.7) | INR - Increased, Grade 1 2 (Group 1, Missing Categories): 1 (6.7) | INR - Increased, Grade 3+ (Group 1, Missing Categories): 0 (0) | Inflammation (bilateral knee), All (Group 1, Missing Categories): 0 (0) | Inflammation (bilateral knee), Grade 1 2 (Group 1, Missing Categories): 0 (0) | Inflammation (bilateral knee), Grade 3+ (Group 1, Missing Categories): 0 (0) | Itching (intermittent), All (Group 1, Missing Categories): 0 (0) | Itching (intermittent), Grade 1 2 (Group 1, Missing Categories): 0 (0) | Itching (intermittent), Grade 3+ (Group 1, Missing Categories): 0 (0) | Microvascular ischemic disease, All (Group 1, Missing Categories): 0 (0) | Microvascular ischemic disease, Grade 1 2 (Group 1, Missing Categories): 0 (0) | Microvascular ischemic disease, Grade 3+ (Group 1, Missing Categories): 0 (0) | Pain (leg), All (Group 1, Missing Categories): 0 (0) | Pain (leg), Grade 1 2 (Group 1, Missing Categories): 0 (0) | Pain (leg), Grade 3+ (Group 1, Missing Categories): 0 (0) | Retinal Detachment, All (Group 1, Missing Categories): 1 (6.7) | Retinal Detachment, Grade 1 2 (Group 1, Missing Categories): 1 (6.7) | Retinal Detachment, Grade 3+ (Group 1, Missing Categories): 0 (0) | Steroid-induced hyperglycemia, All (Group 1, Missing Categories): 0 (0) | Steroid-induced hyperglycemia, Grade 1 2 (Group 1, Missing Categories): 0 (0) | Steroid-induced hyperglycemia, Grade 3+ (Group 1, Missing Categories): 0 (0) | Symptomatic anemia, All (Group 1, Missing Categories): 0 (0) | Symptomatic anemia, Grade 1 2 (Group 1, Missing Categories): 0 (0) | Symptomatic anemia, Grade 3+ (Group 1, Missing Categories): 0 (0) | lung fullness, All (Group 1, Missing Categories): 1 (6.7) | lung fullness, Grade 1 2 (Group 1, Missing Categories): 1 (6.7) | lung fullness, Grade 3+ (Group 1, Missing Categories): 0 (0) | neuropathy (BLE), All (Group 1, Missing Categories): 0 (0) | neuropathy (BLE), Grade 1 2 (Group 1, Missing Categories): 0 (0) | neuropathy (BLE), Grade 3+ (Group 1, Missing Categories): 0 (0) | pericarditis (intermittent), All (Group 1, Missing Categories): 0 (0) | pericarditis (intermittent), Grade 1 2 (Group 1, Missing Categories): 0 (0) | pericarditis (intermittent), Grade 3+ (Group 1, Missing Categories): 0 (0) | Dry skin, All [1]: 1 (6.7) | Dry skin, Grade 1 2 [1]: 1 (6.7) | Dry skin, Grade 3+ [1]: 0 (0) | Ecchymosis, All [1]: 1 (6.7) | Ecchymosis, Grade 1 2 [1]: 1 (6.7) | Ecchymosis, Grade 3+ [1]: 0 (0) | Erythema nodosum, All [1]: 0 (0) | Erythema nodosum, Grade 1 2 [1]: 0 (0) | Erythema nodosum, Grade 3+ [1]: 0 (0) | Erythema, All [1]: 1 (6.7) | Erythema, Grade 1 2 [1]: 1 (6.7) | Erythema, Grade 3+ [1]: 0 (0) | Hyperhidrosis, All [1]: 0 (0) | Hyperhidrosis, Grade 1 2 [1]: 0 (0) | Hyperhidrosis, Grade 3+ [1]: 0 (0) | Nail discolouration, All [1]: 1 (6.7) | Nail discolouration, Grade 1 2 [1]: 1 (6.7) | Nail discolouration, Grade 3+ [1]: 0 (0) | Petechiae, All [1]: 0 (0) | Petechiae, Grade 1 2 [1]: 0 (0) | Petechiae, Grade 3+ [1]: 0 (0) | Photosensitivity reaction, All [1]: 1 (6.7) | Photosensitivity reaction, Grade 1 2 [1]: 1 (6.7) | Photosensitivity reaction, Grade 3+ [1]: 0 (0) | Pruritus, All [1]: 1 (6.7) | Pruritus, Grade 1 2 [1]: 1 (6.7) | Pruritus, Grade 3+ [1]: 0 (0) | Rash papular, All [1]: 0 (0) | Rash papular, Grade 1 2 [1]: 0 (0) | Rash papular, Grade 3+ [1]: 0 (0) | Rash, All [1]: 1 (6.7) | Rash, Grade 1 2 [1]: 1 (6.7) | Rash, Grade 3+ [1]: 0 (0) | Scab, All [1]: 0 (0) | Scab, Grade 1 2 [1]: 0 (0) | Scab, Grade 3+ [1]: 0 (0) | Skin disorder, All [1]: 1 (6.7) | Skin disorder, Grade 1 2 [1]: 1 (6.7) | Skin disorder, Grade 3+ [1]: 0 (0) | Skin lesion, All [1]: 0 (0) | Skin lesion, Grade 1 2 [1]: 0 (0) | Skin lesion, Grade 3+ [1]: 0 (0) | Swelling face, All [1]: 0 (0) | Swelling face, Grade 1 2 [1]: 0 (0) | Swelling face, Grade 3+ [1]: 0 (0) | Hypertension, All (Group 1, Vascular disorders): 1 (6.7) | Hypertension, Grade 1 2 (Group 1, Vascular disorders): 0 (0) | Hypertension, Grade 3+ (Group 1, Vascular disorders): 1 (6.7) | Hypotension, All (Group 1, Vascular disorders): 3 (20) | Hypotension, Grade 1 2 (Group 1, Vascular disorders): 2 (13.3) | Hypotension, Grade 3+ (Group 1, Vascular disorders): 1 (6.7) | Lymphoedema, All (Group 1, Vascular disorders): 0 (0) | Lymphoedema, Grade 1 2 (Group 1, Vascular disorders): 0 (0) | Lymphoedema, Grade 3+ (Group 1, Vascular disorders): 0 (0) | Peripheral venous disease, All (Group 1, Vascular disorders): 0 (0) | Peripheral venous disease, Grade 1 2 (Group 1, Vascular disorders): 0 (0) | Peripheral venous disease, Grade 3+ (Group 1, Vascular disorders): 0 (0) | Atrial fibrillation with RVR, All (Group 2, Missing Categories): 1 (8.3) | Atrial fibrillation with RVR, Grade 1 2 (Group 2, Missing Categories): 1 (8.3) | Atrial fibrillation with RVR, Grade 3+ (Group 2, Missing Categories): 0 (0) | COPD exacerbation, All (Group 2, Missing Categories): 0 (0) | COPD exacerbation, Grade 1 2 (Group 2, Missing Categories): 0 (0) | COPD exacerbation, Grade 3+ (Group 2, Missing Categories): 0 (0) | Chest pain (non-cardiac), All (Group 2, Missing Categories): 1 (8.3) | Chest pain (non-cardiac), Grade 1 2 (Group 2, Missing Categories): 1 (8.3) | Chest pain (non-cardiac), Grade 3+ (Group 2, Missing Categories): 0 (0) | Death, NOS, All (Group 2, Missing Categories): 0 (0) | Death, NOS, Grade 1 2 (Group 2, Missing Categories): 0 (0) | Death, NOS, Grade 3+ (Group 2, Missing Categories): 0 (0) | Diarrhea (intermittent), All (Group 2, Missing Categories): 1 (8.3) | Diarrhea (intermittent), Grade 1 2 (Group 2, Missing Categories): 1 (8.3) | Diarrhea (intermittent), Grade 3+ (Group 2, Missing Categories): 0 (0) | Hand-Foot Syndrome, All (Group 2, Missing Categories): 0 (0) | Hand-Foot Syndrome, Grade 1 2 (Group 2, Missing Categories): 0 (0) | Hand-Foot Syndrome, Grade 3+ (Group 2, Missing Categories): 0 (0) | Hip Pain, All (Group 2, Missing Categories): 0 (0) | Hip Pain, Grade 1 2 (Group 2, Missing Categories): 0 (0) | Hip Pain, Grade 3+ (Group 2, Missing Categories): 0 (0) | Hypokalemia (intermittent), All (Group 2, Missing Categories): 1 (8.3) | Hypokalemia (intermittent), Grade 1 2 (Group 2, Missing Categories): 1 (8.3) | Hypokalemia (intermittent), Grade 3+ (Group 2, Missing Categories): 0 (0)
